Source: patent publication US11407748B2, “Substituted pyrido[1,2-a]pyrimidines and pyrazino[1,2-a]pyrimidines for enhancing AMPA receptor function” (Takeda Pharmaceutical Company Limited, priority 2017, dated 2022)

What was measured:
hGluR1 flip = target: T1, hGluR1 flip (Homo sapiens, UniProt P42261); assay: AMPA receptor function-enhancing activity using calcium influx as index; assay type: cell-based; details: test compound 30 μM with 3 mM glutamic acid; CHO-K1/GluR1 flip/stargazin-expressing cells; 100% = 3 mM glutamic acid + 300 μM cyclothiazide, 0% = 3 mM glutamic acid alone
T1 construct: expressed in transfected cells; host or cells: CHO-K1
Method in brief: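 CHO-K1 cells co-expressing human GluR1 flip and stargazin, loaded with Calcium5 dye with 1.25 mM probenecid. Test compound at 30 μM added with 3 mM glutamate; fluorescence followed 3 min. Activity % scaled between glutamate alone (0%) and glutamate plus 300 μM cyclothiazide (100%).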

Long Evans rats = assay: Novel object recognition test; assay type: in vivo, rat; details: 1 mg/kg p.o.; for Novel Object Interaction (%): 1 hr before acquisition trial and 1 hr before retention trial, retention trial 48 hr after acquisition, mean ± standard error; for novel object interaction (result in words): rats
Excerpt: Experimental Example 2 Novel Object Recognition Test (1) Animals
Male Long Evans rats were supplied by Japan SLC, and used at 7-week-old in the experiments. After arrival to the vivarium, animals were allowed a minimum of 1 week for acclimation. They were housed under a 12:12-h light/dark cycle in a temperature- and humidity-controlled laboratory and allowed food and water ad libitum.
A test compound was suspended in 0.5% methylcellulose in distilled water and orally administered (p.o.). All test compounds were dosed in a volume of 2 mL/kg body weight for rats.
(3) Novel Object Recognition Test
Novel object recognition test is a test system utilizing the novel object preference characteristics of rodents. This novel object recognition test consists of two trials, “acquisition trial” and “retention trial”, and, when an interval between these two trials is short, rodents spend a longer period for novel object exploration behaviors, and the preference dissipates as the interval gets longer. From this, the behavioral change in the novel object recognition test is considered to reflect the rodents' memory of the object during the acquisition trial. In this experimental example, the retention trial was carried out 48 hr after the acquisition trial. On the day before the test, for acclimation, Long-Evans ats were allowed to freely move about the test box (40×40×50 cm) for 10 minutes. On the test day, the rats were acclimated to the test room for about 1 hr prior to the test. The test compound (Compound A (Example 14), Compound B (Example 48), 1 mg/kg) were orally administered to the rats twice 1 hr before the acquisition trial and 1 hr before the retention trial. For the acquisition trial, two identical objects (A1, A2) were placed in the test box. The rats were put in the test box for 3 min, and the duration contacting each object was measured. The retention trial was carried out 48 hr after the acquisition trial. For the retention trial, the familiar object (A3) used for the acquisition trial and the novel object (B) different shape from A3 were placed in the test box. The rats were put in the test box for 3 min. The duration contacting each object in the acquisition trial and the retention trial, and the novel object interaction (%) was calculated. The novel object interaction (%) was expressed as (the duration contacting the novel object)/[(the duration contacting the novel object)+(the duration contacting the familiar object)]×100(%) at mean±standard error.

T1 sequence (P42261 19-906 isoform P42261-2 limits assumed): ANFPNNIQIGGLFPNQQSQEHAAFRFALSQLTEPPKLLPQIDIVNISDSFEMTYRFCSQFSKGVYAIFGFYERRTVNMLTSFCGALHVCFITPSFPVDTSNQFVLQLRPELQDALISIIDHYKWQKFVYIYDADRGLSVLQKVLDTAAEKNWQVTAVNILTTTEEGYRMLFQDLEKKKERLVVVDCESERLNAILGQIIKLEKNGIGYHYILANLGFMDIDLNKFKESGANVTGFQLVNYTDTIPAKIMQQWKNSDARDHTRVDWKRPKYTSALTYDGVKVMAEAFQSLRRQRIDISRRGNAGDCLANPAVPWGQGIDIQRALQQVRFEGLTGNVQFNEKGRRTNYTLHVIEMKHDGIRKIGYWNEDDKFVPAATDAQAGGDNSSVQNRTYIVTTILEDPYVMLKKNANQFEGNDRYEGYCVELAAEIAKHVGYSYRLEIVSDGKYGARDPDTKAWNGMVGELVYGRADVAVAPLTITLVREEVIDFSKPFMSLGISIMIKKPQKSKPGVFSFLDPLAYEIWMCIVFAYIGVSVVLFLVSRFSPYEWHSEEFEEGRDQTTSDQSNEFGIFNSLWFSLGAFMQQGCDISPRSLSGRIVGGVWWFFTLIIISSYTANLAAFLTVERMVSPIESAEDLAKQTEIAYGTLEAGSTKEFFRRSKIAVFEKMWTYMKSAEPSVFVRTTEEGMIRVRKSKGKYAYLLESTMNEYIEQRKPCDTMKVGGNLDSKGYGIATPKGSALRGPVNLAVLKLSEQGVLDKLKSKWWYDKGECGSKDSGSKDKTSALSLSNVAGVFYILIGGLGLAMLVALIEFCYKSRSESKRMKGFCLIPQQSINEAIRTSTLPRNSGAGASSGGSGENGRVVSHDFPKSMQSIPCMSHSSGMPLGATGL
T1 sequence (Q9Y698 whole entry partner): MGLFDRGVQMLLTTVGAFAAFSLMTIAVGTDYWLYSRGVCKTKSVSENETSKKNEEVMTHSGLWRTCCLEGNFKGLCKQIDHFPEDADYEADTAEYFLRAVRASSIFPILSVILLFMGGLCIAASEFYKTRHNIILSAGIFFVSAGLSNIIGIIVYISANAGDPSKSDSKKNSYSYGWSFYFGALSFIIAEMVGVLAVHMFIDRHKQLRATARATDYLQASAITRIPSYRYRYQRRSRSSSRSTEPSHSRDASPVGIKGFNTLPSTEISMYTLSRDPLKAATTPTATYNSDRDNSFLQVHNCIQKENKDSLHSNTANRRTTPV

SMILES	activation at 30 µM (hGluR1 flip) [%]	Novel Object Interaction (%) (Long Evans rats)	novel object interaction (result in words) (Long Evans rats)
O=C(c1ccc(-c2cccn3c(=O)c(Br)c(C(F)(F)F)nc23)cc1)N1CCOCC1 [Example 14, 3-bromo-9-(4-(morpholin-4-ylcarbonyl)phenyl)-2-(trifluoromethyl)-4H-pyrido[1,2-a]pyrimidin-4-one]	94.3	61.94 ± 2.33	increased the novel object interaction
C[C@H]1CN(C(=O)c2ccc(-c3cccn4c(=O)c(Br)c(C(F)(F)F)nc34)cc2)CCO1 [Example 48, 3-bromo-9-(4-(((2S)-2-methylmorpholin-4-yl)carbonyl)phenyl)-2-(trifluoromethyl)-4H-pyrido[1,2-a]pyrimidin-4-one]	88.1	61.42 ± 2.61	increased the novel object interaction
